Experimental data as given in PubChem BioAssay (NCI).
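Here, GI50 denotes the concentration required for 50% inhibition of growth. TGI: total growth inhibition.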

Tests used:
Assay in all cases: NCI anticancer screen, dose series, 384-well format
RPMI-8226 leukemia = system: RPMI-8226 leukemia
TK-10 renal = system: TK-10 renal
HT29 colon = system: HT29 colon
T-47D breast = system: T-47D breast
MCF7 breast = system: MCF7 breast
UO-31 renal = system: UO-31 renal
HL-60(TB) leukemia = system: HL-60(TB) leukemia
SK-OV-3 ovarian = system: SK-OV-3 ovarian
OVCAR-8 ovarian = system: OVCAR-8 ovarian
CCRF-CEM leukemia = system: CCRF-CEM leukemia
UACC-62 melanoma = system: UACC-62 melanoma
LOX IMVI melanoma = system: LOX IMVI melanoma
HCT-15 colon = system: HCT-15 colon
OVCAR-3 ovarian = system: OVCAR-3 ovarian
NCI-H522 lung = system: NCI-H522 lung
NCI-H460 NSCLC = system: NCI-H460 NSCLC
UACC-257 melanoma = system: UACC-257 melanoma
SW-620 colon = system: SW-620 colon
U251 glioblastoma = system: U251 glioblastoma
IGROV1 ovarian = system: IGROV1 ovarian
MDA-MB-468 breast = system: MDA-MB-468 breast
NCI/ADR-RES ovarian = system: NCI/ADR-RES ovarian
HOP-92 NSCLC = system: HOP-92 NSCLC
M14 melanoma = system: M14 melanoma
OVCAR-4 ovarian = system: OVCAR-4 ovarian
HCC-2998 colon = system: HCC-2998 colon
SNB-19 CNS = system: SNB-19 CNS
SF-539 CNS = system: SF-539 CNS
K-562 leukemia = system: K-562 leukemia

## Cn1cc(S(=O)(=O)N2CCC3=Cc4c(cnn4-c4ccc(F)cc4)C[C@]3(C(=O)c3cc(C(F)(F)F)ccn3)C2)cn1
RPMI-8226 leukemia
  TGI: 3.1 µM
TK-10 renal
  GI50: 78.8 µM
  TGI: > 100 µM
HT29 colon
  GI50: > 100 µM
  TGI: > 100 µM
T-47D breast
  GI50: 3.09 µM
  TGI: > 100 µM
MCF7 breast
  GI50: 8.88 µM
  TGI: > 100 µM
UO-31 renal
  GI50: 11.8 µM
  TGI: > 100 µM
HL-60(TB) leukemia
  GI50: 4.66 µM
  TGI: 12.9 µM
SK-OV-3 ovarian
  GI50: 5.8 µM
  TGI: > 100 µM
OVCAR-8 ovarian
  GI50: 46.8 µM
  TGI: > 100 µM
CCRF-CEM leukemia
  GI50: 4.73 µM
  TGI: > 100 µM
UACC-62 melanoma
  GI50: 38.6 µM
  TGI: > 100 µM
LOX IMVI melanoma
  GI50: 49 µM
  TGI: > 100 µM
HCT-15 colon
  GI50: > 100 µM
  TGI: > 100 µM
OVCAR-3 ovarian
  GI50: 9.32 µM
  TGI: > 100 µM
NCI-H522 lung
  GI50: 3.19 µM
  TGI: 81.2 µM
NCI-H460 NSCLC
  GI50: 3.12 µM
  TGI: > 100 µM
UACC-257 melanoma
  GI50: 7.32 µM
  TGI: > 100 µM
SW-620 colon
  GI50: > 100 µM
  TGI: > 100 µM
U251 glioblastoma
  GI50: 15.4 µM
  TGI: > 100 µM
IGROV1 ovarian
  GI50: 14.1 µM
  TGI: > 100 µM
MDA-MB-468 breast
  GI50: 1.84 µM
  TGI: 6.55 µM
NCI/ADR-RES ovarian
  GI50: 7.38 µM
  TGI: > 100 µM
HOP-92 NSCLC
  GI50: 11.8 µM
  TGI: > 100 µM
M14 melanoma
  GI50: > 100 µM
  TGI: > 100 µM
OVCAR-4 ovarian
  GI50: 3.97 µM
  TGI: > 100 µM
HCC-2998 colon
  GI50: > 100 µM
  TGI: > 100 µM
SNB-19 CNS
  GI50: > 100 µM
  TGI: > 100 µM
SF-539 CNS
  GI50: 54.3 µM
  TGI: > 100 µM
K-562 leukemia
  GI50: 3.27 µM
  TGI: > 100 µM
